Assay results published in patent US9670261B2 (Sanofi, priority 2012, dated 2017).
*1 amine or outer side, *2 acyl side, *3 side chain or, on linkers, in order; H or OH if unused. Where a SMILES comes first, the peptide text is derived from it. Side-chain parts run from the residue outwards. [ ]: non-standard residue; d: D form. The star is where a group is joined. γGlu = O=C(O)[C@H](CCC(=O)[*:2])N[*:1]; Stearoyl = CCCCCCCCCCCCCCCCCC(=O)*; Aib = CC(C)(N)C(=O)O

Columns and labels:
human GLP-1 receptor = biological target: T1, human GLP-1 receptor (Homo sapiens, UniProt P43220); assay: cAMP response (HTRF) of HEK-293 cells stably expressing human GLP-1 receptor; format: cell-based; details: Table 7; cAMP formation; read-out: EC50 hGLP-1 R
T1 construct: expressed in transfected cells
In short: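 HTRF read-out of cellular cAMP after 30 min compound exposure at room temperature. Accutase-detached cells were suspended at 400000 cells/ml in HBSS buffer containing 20 mM HEPES, 0.1% BSA and 2 mM IBMX phosphodiesterase inhibitor.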

[1] = tested on: non-fasted female diabetic dbdb-mice; assay: Glucose lowering in non-fasted female diabetic dbdb-mice; format: in vivo; details: 3 μg/kg s.c., at 240 min; baseline 20-22 mmol/l
Description: Female diabetic dbdb-mice of mean non-fasted glucose value of 20-22 mmol/l and a body weight of 42 g+/−0.6 g (SEM) were used. Mice were individually marked and were adapted to housing conditions for at least one week.
3-5 days prior to study start mice were assigned to groups and cages (4 mice per cage, 8 per group) according to their non-fasted glucose values to ensure even distribution of lower and higher values between groups (stratification). On the study day, mice were weighed and dosed (t=0). Immediately prior to compound administration feed was removed while water remained available, and a first blood sample at a tail incision was drawn (baseline). Further blood samples were drawn at the tail incision at 30, 60, 90, 120, 240, 360, and 480 min.
Statistical analyses are performed with Everstat Version 6.0 based on SAS by 2-way-ANOVA on repeated measures, followed by Dunnett's post-hoc test against vehicle-control. Differences are considered statistically significant at the p<0.05 level.
Female dbdb-mice, received 3 μg/kg of SEQ ID NO: 14, SEQ ID NO: 21 or phosphate buffered saline (vehicle control) subcutaneously, at time 0 min.

[2] = Pharmacokinetic testing in mice, s.c.; details: mouse, plasma, sc, 1 mg/kg
Procedure: Mice were dosed 1 mg/kg subcutaneously (s.c.). The mice were sacrified and blood samples were collected after 0.25, 0.5, 1, 2, 4, 8, 16 and 24 hours post application. Plasma samples were analyzed after protein precipitation via liquid chromatography mass spectrometry (LC/MS). PK parameters and half-life were calculated using WinonLin Version 5.2.1 (non-compartment model).

[3] = Solubility testing in buffer (HPLC-UV); details: buffer
[4] = Chemical stability in solution, 7 days at 25° C. (% remaining peptide); details: % remaining peptide after 7 days at 25° C.
Procedure: After that time course, the sample was centrifuged for 20 min at 4000 rpm and the supernatant was analysed with HPLC-UV. For determination of the amount of the remaining peptide, the peak areas of the target compound at t0 and t7 were compared, resulting in “% remaining peptide”, following the equation % remaining peptide=[(peak area peptide t7)×100]/peak area peptide t0.
The chemical stability is expressed as “% remaining peptide”.

[5] = tested on: female diabetic dbdb-mice; assay: Glucose, HbA1c and oral glucose tolerance in diabetic dbdb-mice, chronic treatment (method 4); format: in vivo; details: for oral glucose tolerance: once daily s.c., oral glucose 2 g/kg in the 4th week; for reduction of AUC under the glucose curve compared to vehicle control: oral glucose tolerance test, p<0.05
Procedure: 8 week old, female diabetic dbdb-mice of mean non-fasted glucose value of 14.5 mmol/l and a body weight of 37-40 g were used. Mice were individually marked and were adapted to housing conditions for at least one week.
7 days prior to study start, baseline values for non-fasted glucose and HbA1c were determined, 5 days prior to study start, mice were assigned to groups and cages (5 mice per cage, 10 per group) according to their HbA1c values to ensure even distribution of lower and higher values between groups (stratification).
Mice were treated for 4 weeks, by once daily subcutaneous administration 3 hours prior to the dark phase (6 pm to 6 am). Blood samples from a tail tip incision were obtained for HbA1c on study day 21 and oral glucose tolerance was assessed in the 4th week. Oral glucose tolerance test was done in the morning without prior extra compound administration to majorly assess the effect of chronic treatment and less of acute compound administration. Mice were fasted for 4 hours prior to oral glucose administration (2 g/kg, t=0 min). Blood samples were drawn prior to glucose administration and at 15, 30, 60, 90, 120, and 180 min thereafter. Feed was returned after the last blood sampling. Results are represented as change from baseline, glucose in mmol/l and HbA1c in %.
Statistical analyses are performed with Everstat Version 6.0 based on SAS by 1-way-ANOVA, followed by Dunnett's post-hoc test against vehicle-control. Differences are considered statistically significant at the p<0.05 level.
Female dbdb-mice, received 3 and 10 μg/kg of SEQ ID NO: 16 and 10 μg/kg of SEQ ID NO: 21 or phosphate buffered saline (vehicle control) once daily, subcutaneously over four weeks.

human GIP receptor = biological target: T2, human GIP receptor (Homo sapiens, UniProt P48546); assay: cAMP response (HTRF) of HEK-293 cells stably expressing human GIP receptor; format: cell-based; details: Table 7; cAMP formation; read-out: EC50 hGIP R
T2 construct: expressed in transfected cells
T2 sequence (P48546 22-466): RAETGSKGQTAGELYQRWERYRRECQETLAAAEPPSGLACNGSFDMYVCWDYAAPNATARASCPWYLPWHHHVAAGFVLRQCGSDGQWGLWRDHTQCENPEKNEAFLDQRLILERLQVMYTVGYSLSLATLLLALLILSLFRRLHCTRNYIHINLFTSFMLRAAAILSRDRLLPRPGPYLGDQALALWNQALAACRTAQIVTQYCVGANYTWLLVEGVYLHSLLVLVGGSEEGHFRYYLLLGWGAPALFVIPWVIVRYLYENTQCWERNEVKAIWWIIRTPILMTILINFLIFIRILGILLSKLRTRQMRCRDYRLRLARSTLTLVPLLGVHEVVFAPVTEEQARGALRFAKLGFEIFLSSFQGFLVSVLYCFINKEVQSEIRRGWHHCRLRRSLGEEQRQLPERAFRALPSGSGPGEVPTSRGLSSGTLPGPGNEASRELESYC
Procedure: cAMP content of cells was determined using a kit from Cisbio Corp. (cat. no. 62AM4PEC) based on HTRF (Homogenous Time Resolved Fluorescence). For preparation, cells were split into T175 culture flasks and grown overnight to near confluency in medium (DMEM/10% FBS). Medium was then removed and cells washed with PBS lacking calcium and magnesium, followed by proteinase treatment with accutase (Sigma-Aldrich cat. no. A6964). Detached cells were washed and resuspended in assay buffer (1×HBSS; 20 mM HEPES, 0.1% BSA, 2 mM IBMX) and cellular density determined. They were then diluted to 400000 cells/ml and 25 μl-aliquots dispensed into the wells of 96-well plates. For measurement, 25 μl of test compound in assay buffer was added to the wells, followed by incubation for 30 minutes at room temperature.

[6] = Pharmacokinetic testing in Göttinger minipigs, s.c.; format: in vivo; details: female, minipig, plasma, sc, Mini pigs, 0.1 mg/kg s.c.
Procedure: Female Göttinger minipigs were dosed 0.1 mg/kg subcutaneously (s.c.). Blood samples were collected after 0.25, 0.5, 1, 2, 4, 8, 24, 32, 48, 56 and 72 hours post application. Plasma samples were analyzed after protein precipitation via liquid chromatography mass spectrometry (LC/MS). PK parameters and half-life were calculated using WinonLin Version 5.2.1 (non-compartment model).

[7] = tested on: female diet-induced obese (DIO) C57BL/6NCrl mice; assay: Body weight in DIO mice, 14 weeks of prefeeding with high-fat diet (method 2); format: in vivo
Procedure: Female C57BL/6NCrl mice were housed in groups in a specific pathogen-free barrier facility on a 12 h light/dark cycle with free access to water and high-fat diet. After 14 weeks on high-fat diet, mice were stratified to treatment groups (n=8), so that each group had similar mean body weight.
An aged-matched group with ad libitum access to standard chow and water was included as standard control group.
Before the experiment, mice were subcutaneously (s.c.) injected with vehicle solution and weighed for 3 days to acclimate them to the procedures.
Body weight was recorded daily.
Statistical analyses were performed with Everstat 6.0 by repeated measures two-way ANOVA and Dunnett's post-hoc analyses (glucose profile) and 1-way-ANOVA, followed by Dunnett's post-hoc test (body weight, body fat). Differences versus vehicle-treated DIO control mice were considered statistically significant at the p<0.05 level.
Female obese C57BL/6NCrl mice were treated for 3 weeks once daily subcutaneously in the late afternoon, prior the end of the light phase (12 h lights on) with 10 μg/kg SEQ ID NO: 9 and SEQ ID NO: 21 or vehicle. Body weight was recorded daily.

T1 sequence (P43220 24-463): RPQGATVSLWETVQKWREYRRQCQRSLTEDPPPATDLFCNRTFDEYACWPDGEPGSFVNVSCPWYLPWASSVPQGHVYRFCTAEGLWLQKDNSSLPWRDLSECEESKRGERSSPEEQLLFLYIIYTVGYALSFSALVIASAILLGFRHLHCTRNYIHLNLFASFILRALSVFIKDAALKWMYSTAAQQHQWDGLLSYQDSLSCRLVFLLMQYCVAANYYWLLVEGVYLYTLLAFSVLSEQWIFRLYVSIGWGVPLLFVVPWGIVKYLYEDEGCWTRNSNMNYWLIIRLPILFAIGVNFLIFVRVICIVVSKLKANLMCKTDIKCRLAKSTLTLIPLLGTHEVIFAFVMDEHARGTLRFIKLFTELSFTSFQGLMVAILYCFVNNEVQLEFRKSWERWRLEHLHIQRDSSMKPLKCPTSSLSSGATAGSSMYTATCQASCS

SMILES | EC50 (human GLP-1 receptor) | maximal effect on glucose, change from baseline [1] | Cmax [2] | half-life [2] | solubility at 2 h ([3]; pH 4.5) | solubility at 2 h ([3]; pH 7.4) | Stability (pH 4.5) ([4]; pH 4.5) | Stability (pH 7.4) ([4]; pH 7.4) | oral glucose tolerance [5] | reduction of AUC under the glucose curve compared to vehicle control [5] | EC50 (human GIP receptor) | Cmax [6] | half-life [6] | decrease of body weight, relative change from baseline ([7]; 10 μg/kg s.c. once daily, 3 weeks) | Overall weight change ([7]; 10 μg/kg, 3-week treatment, mean ± SEM) | maximal effect, glucose reduction [1]
CCCCCCCCCCCCCCCCCC(=O)N[C@@H](CCC(=O)NCCCC[C@H](NC(=O)[C@H](CCC(N)=O)NC(=O)[C@@H](NC(=O)[C@H](CO)NC(=O)[C@H](CC(C)C)NC(=O)[C@H](CC(=O)O)NC(=O)[C@H](CO)NC(=O)[C@@H](NC(=O)[C@H](Cc1ccccc1)NC(=O)[C@@H](NC(=O)CNC(=O)[C@H](CCC(=O)O)NC(=O)C(C)(C)NC(=O)[C@@H](N)Cc1ccc(O)cc1)[C@@H](C)O)[C@@H](C)O)[C@@H](C)CC)C(=O)N[C@@H](CCC(=O)O)C(=O)N[C@@H](CCCCN)C(=O)N[C@@H](CCCNC(=N)N)C(=O)N[C@@H](C)C(=O)N[C@@H](C)C(=O)N[C@@H](CCC(N)=O)C(=O)N[C@@H](CCC(=O)O)C(=O)N[C@@H](Cc1ccccc1)C(=O)N[C@H](C(=O)N[C@@H](CCC(=O)O)C(=O)N[C@@H](Cc1c[nH]c2ccccc12)C(=O)N[C@@H](CC(C)C)C(=O)N[C@@H](CCCCN)C(=O)N[C@@H](C)C(=O)NCC(=O)NCC(=O)N1CCC[C@H]1C(=O)N[C@@H](CO)C(=O)N[C@@H](CO)C(=O)NCC(=O)N[C@@H](C)C(=O)N1CCC[C@H]1C(=O)N1CCC[C@H]1C(=O)N1CCC[C@H]1C(=O)N[C@@H](CO)C(N)=O)[C@@H](C)CC)C(=O)O [SEQ ID NO: 14, Y-Aib-E-G-T-F-T-S-D-L-S-I-Q-K(γE-x70)-EKRAAQEFIEWLKAGGPSSGAPPPS-NH2] (H-Y[Aib]EGTFTSDLSIQK([γGlu-Stearoyl])EKRAAQEFIEWLKAGGPSSGAPPPS-NH2) | 4.3 pM | -8 mmol/L | 5340 ng/mL | 2.8 h | > 1000 µg/mL | > 1000 µg/mL | 96.0% | 94.0% |  |  |  |  |  |  |  | 
CCCCCCCCCCCCCCCCCC(=O)N[C@@H](CCC(=O)N[C@@H](CCC(=O)NCCCC[C@H](NC(=O)[C@H](CCC(N)=O)NC(=O)[C@@H](NC(=O)[C@H](CO)NC(=O)[C@H](CC(C)C)NC(=O)[C@H](CC(=O)O)NC(=O)[C@H](CO)NC(=O)[C@@H](NC(=O)[C@H](Cc1ccccc1)NC(=O)[C@@H](NC(=O)CNC(=O)[C@H](CCC(=O)O)NC(=O)C(C)(C)NC(=O)[C@@H](N)Cc1ccc(O)cc1)[C@@H](C)O)[C@@H](C)O)[C@@H](C)CC)C(=O)N[C@@H](CCC(=O)O)C(=O)N[C@@H](CCCCN)C(=O)N[C@@H](CCCNC(=N)N)C(=O)N[C@@H](C)C(=O)N[C@@H](C)C(=O)NC(C)(C)C(=O)N[C@@H](CCC(=O)O)C(=O)N[C@@H](Cc1ccccc1)C(=O)N[C@H](C(=O)N[C@@H](CCC(=O)O)C(=O)N[C@@H](Cc1c[nH]c2ccccc12)C(=O)N[C@@H](CC(C)C)C(=O)N[C@@H](CCCCN)C(=O)N[C@@H](CC(N)=O)C(=O)N[C@H](C(=O)NCC(=O)N1CCC[C@H]1C(=O)N[C@@H](CO)C(=O)N[C@@H](CO)C(=O)NCC(=O)N[C@@H](C)C(=O)N1CCC[C@H]1C(=O)N1CCC[C@H]1C(=O)N1CCC[C@H]1C(=O)N[C@@H](CO)C(N)=O)[C@@H](C)O)[C@@H](C)CC)C(=O)O)C(=O)O [SEQ ID NO: 16, Y-Aib-E-G-T-F-T-S-D-L-S-I-Q-K(γE-γE-x70)-E-K-R-A-A-Aib-E-F-I-E-W-L-K-N-T-G-P-S-S-G-A-P-P-P-S-NH2] (H-Y[Aib]EGTFTSDLSIQK([γGlu-γGlu-Stearoyl])EKRAA[Aib]EFIEWLKNTGPSSGAPPPS-NH2) | 4 pM |  | 3460 ng/mL | 5.3 h |  |  |  |  | improved oral glucose tolerance | reached statistical significance |  |  |  |  |  | 
CCCCCCCCCCCCCCCCCC(=O)N[C@@H](CCC(=O)NCCCC[C@H](NC(=O)[C@H](CCC(N)=O)NC(=O)[C@@H](NC(=O)[C@H](CO)NC(=O)[C@H](CC(C)C)NC(=O)[C@H](CC(=O)O)NC(=O)[C@H](CO)NC(=O)[C@@H](NC(=O)[C@H](Cc1ccccc1)NC(=O)[C@@H](NC(=O)CNC(=O)[C@H](CCC(=O)O)NC(=O)C(C)(C)NC(=O)[C@@H](N)Cc1ccc(O)cc1)[C@@H](C)O)[C@@H](C)O)[C@@H](C)CC)C(=O)N[C@@H](CCC(=O)O)C(=O)N[C@@H](CO)C(=O)N[C@@H](CCCNC(=N)N)C(=O)N[C@@H](C)C(=O)N[C@@H](C)C(=O)N[C@@H](CCC(N)=O)C(=O)N[C@@H](CCC(=O)O)C(=O)N[C@@H](Cc1ccccc1)C(=O)N[C@H](C(=O)N[C@@H](CCC(=O)O)C(=O)N[C@@H](Cc1c[nH]c2ccccc12)C(=O)N[C@@H](CC(C)C)C(=O)N[C@@H](CCCCN)C(=O)N[C@@H](C)C(=O)NCC(=O)NCC(=O)N1CCC[C@H]1C(=O)N[C@@H](CO)C(=O)N[C@@H](CO)C(=O)NCC(=O)N[C@@H](C)C(=O)N1CCC[C@H]1C(=O)N1CCC[C@H]1C(=O)N1CCC[C@H]1C(=O)N[C@@H](CO)C(N)=O)[C@@H](C)CC)C(=O)O [SEQ ID NO: 21, Y-Aib-E-G-T-F-T-S-D-L-S-I-Q-K(γE-x70)-ESRAAQEFIEWLKAGGPSSGAPPPS-NH2] (H-Y[Aib]EGTFTSDLSIQK([γGlu-Stearoyl])ESRAAQEFIEWLKAGGPSSGAPPPS-NH2) |  |  | 5050 ng/mL | 4 h |  |  |  |  | improved oral glucose tolerance | reached statistical significance | 6.4 pM | 479 ng/mL | 19.1 h | ≤ 18.0% | -7.3 ± 0.7 g | 10 to 12 mmol/L
